Test results published in patent publication US7846944B2, “Pyrazolo-pyridinone compounds and methods of use thereof” (Amgen Inc., priority 2007, dated 2010).
pIC50: −log10 of the molar value. Where two headings read alike, the source gives them in different places.

Columns and labels:
[1] = tested on: secreted IL-8 by whole blood activated with TNF-α; experiment: Inhibition of TNF-α induced IL-8 in 50% human whole blood; assay type: cell-based; settings: TNF-α (1 nM) induced IL-8, 50% human whole blood, read-out: WB TNF/IL8 IC50
Procedure: Inhibition of TNF-α Induced IL-8 in 50% Human Whole Blood
Test compounds were evaluated in vitro for the ability to inhibit the production of secreted IL-8 by whole blood activated with TNF-α. Fresh human whole blood was obtained from healthy, non-medicated volunteers in sodium heparin tubes.
Compound Dilution—Assay Procedure
100 ul heparinized whole blood is plated into wells of 96 well flat bottom plates. 50 ul of either 4× compound or DMSO control (Final DMSO concentration is 0.1%) are added to the appropriate wells. Plates are incubated for 1 hour at 37 degrees Celsius. 50 ul of 4×TNF-α ([…], for a final concentration of 1 nM) or control (media alone) is added to the appropriate wells (Total volume=200 ul). Plates are incubated overnight (16-18 hours). 100 ul of supernatant is collected and stored in 96-well round bottom polypropylene plates at −80 degrees Celsius or assayed immediately for IL-8.
Cytokines are measured on antibody (Ab) sandwich ECL based 96-well detection plates. 20 ul of supernatant are added to plate and plate is sealed and shaken at RT for 1 hour. 130 ul of detection Ab cocktail is added and plates are sealed and shaken for 1 hour in the dark at RT. Plates are read on MSD Sector HTS instrument. Data are analyzed and IC50 values generated using Activity Base and XI-fit programs.

[2] = tested on: TNF-α secretion by LPS-treated THP1 cells; experiment: Lipopolysaccharide-activated THP1 cell TNF production assay; assay type: cell-based; settings: Homo sapiens, THP-1; LPS, 3 hours, THP1 cells; read-out: IC50 in the THP-1 cellular TNF production assay
Procedure: Lipopolysaccharide-Activated THP1 Cell TNF Production Assay
THP1 cells were resuspended in fresh THP1 media (RPMI 1640, 10% heat-inactivated FBS, 1×PGS, 1×NEAA, plus 30 μM βME) at a concentration of 1.5×10^6 cells per mL. One hundred microliters of cells per well were plated in a polystyrene 96-well tissue culture plate. 1.5 micrograms per mL of bacterial LPS was prepared in THP1 media and transferred to the first 11 columns of a 96-well polypropylene plate. Column 12 contained only THP1 media for the LO control. Compounds were dissolved in 100% DMSO and serially diluted 3 fold in a polypropylene 96-well microtiter plate (drug plate). Columns 6 and 12 were reserved as controls (HI controls and LO controls respectively) and contained only DMSO. 10 μL of LPS followed by one microliter of inhibitor compound from the drug plate was transferred to the cell plate. The treated cells were induced to synthesize and secrete TNF-α in a 37° C. humidified incubator with 5% CO2 for 3 hours. Fifty microliters of conditioned media was transferred to a 96-well MULTI-ARRAY™ 96-well small spot plate—custom coated with MAB610 containing 100 μL of 2× Read Buffer P supplemented with 0.34 nM AF210NA polyclonal Ab labeled with ruthenium (MSD-Sulfo-TAG™-NHS ester). After an overnight incubation at room temperature with shaking, the reaction was read on the Sector Imager™ 6000. […] The amount of secreted TNF-α in the presence of AMG compounds compared with that in the presence of DMSO vehicle alone (HI control) was calculated using the formula: % control (POC)=(cpd−average LO)/(average HI−averageLO)*100. Data (consisting of POC and inhibitor concentration in μM) was fitted to a 4-parameter equation (y=A+((B−A)/(1+((x/C)^D))), where A is the minimum y (POC) value, B is the maximum y (POC), C is the x (cpd concentration) at the point of inflection and D is the slope factor) using a Levenburg-Marquardt non-linear regression algorithm.

recombinant human p38α = recombinant human p38α (Homo sapiens, UniProt Q16539); experiment: Purified and activated recombinant human p38α HTRF kinase assay; assay type: biochemical; settings: 1 nM p38α, 50 μM ATP, GST-ATF2 substrate, read-out: p38a IC50
Chain of recombinant human p38α (Q16539 whole entry): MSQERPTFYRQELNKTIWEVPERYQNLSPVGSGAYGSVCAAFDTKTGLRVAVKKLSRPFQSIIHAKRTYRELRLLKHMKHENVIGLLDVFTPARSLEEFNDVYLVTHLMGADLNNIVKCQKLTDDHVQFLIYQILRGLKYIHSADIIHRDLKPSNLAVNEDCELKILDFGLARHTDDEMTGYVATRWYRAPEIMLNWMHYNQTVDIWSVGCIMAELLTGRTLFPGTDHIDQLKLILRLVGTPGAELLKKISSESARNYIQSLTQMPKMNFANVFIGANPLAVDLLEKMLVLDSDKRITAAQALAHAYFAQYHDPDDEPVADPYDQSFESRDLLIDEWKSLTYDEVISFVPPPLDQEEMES
Procedure: Purified and Activated Recombinant Human p38α Assay
• Kinase Reaction Buffer: Kinase reaction buffer for p38α HTRF assays consists of 50 mM Tris-pH 7.5, 5 mM MgCl2, 0.1 mg/mL BSA, 100 μM Na3VO4 and 0.5 mM DTT. • HTRF Detection Buffer: HTRF detection buffer contains 100 mM HEPES-pH 7.5, 100 mM NaCl, 0.1% BSA, 0.05% Tween-20, and 10 mM EDTA. • Serial Dilution of Compounds: Compounds were dissolved in 100% DMSO and serially diluted (3 fold, 10 point) in a polypropylene 96-well microtiter plate (drug plate). The final starting concentration of compounds in the p38α enzymatic assays was 1 μM. Columns 6 and 12 (HI controls and LO controls respectively) in the drug plate were reserved as controls and contained only DMSO. • Kinase Reaction The p38α kinase reactions were carried out in a polypropylene 96-well black round bottom assay plate in total volume of 30 μL kinase reaction buffer. Appropriate concentration of purified and activated enzyme (recombinant human) was mixed with indicated concentration of ATP and 100 nM GST-ATF2-Avitag, in the presence or absence (HI control) of Compound. See table below for actual concentrations. In the absence of substrate, the background was measured as LO control. The reaction was allowed to incubate for 1 hour at RT. • Assay Reagent Concentrations: The final reagent concentrations were 1 nM p38α and 50 μM ATP. […] After 60 minutes incubation at room temperature, the assay plate was read in a Discovery Plate Reader. The wells were excited with coherent 320 nm light and the ratio of delayed ([…] post excitation) emissions at […] (native europium fluorescence) and 665 nm (europium fluorescence transferred to allophycocyanin—an index of substrate phosphorylation) was determined (Park et al, 1999). • Data Analysis: The proportion of substrate phosphorylated in the kinase reaction in the presence of compound compared with that phosphorylated in the presence of DMSO vehicle alone (HI control) was calculated using the formula: % control (POC)=(compound−average LO)/(average HI−average LO)*100. Data (consisting of POC and inhibitor concentration in μM) was fitted to a 4-parameter equation (y=A+((B−A)/(1+((x/C)^D))), where A is the minimum y (POC) value, B is the maximum y (POC), C is the x (compound concentration) at the point of inflection and D is the slope factor, using a Levenburg-Marquardt non-linear regression algorithm.
The inhibition constant (Ki) of the inhibitor was estimated from the IC50 (compound concentration at the point of inflection C) using the Cheng-Prussof equation: Ki=IC50/(1+S/Km), where S is the ATP substrate concentration, and Km is the Michaelis constant for ATP as determined experimentally. All results were expressed as the mean±the standard error of the mean. Data acquisition and non-linear regression algorithms were performed using Activity Base v5.2 and XL-fit software v4.1 respectively. All data was archived using Activity Base v5.2 software.

pIC50 ([1]; Homo sapiens)	pIC50 [1]	pIC50 [2]	pIC50 (recombinant human p38α)	Compound
≥ 7.00	7.13	≥ 6.76		Cc1ccc(NC(=O)C2CC2)cc1-c1cc2cnn(-c3ccc(F)cc3F)c2n(C)c1=O [Example 16, N-(3-(1-(2,4-difluorophenyl)-7-methyl-6-oxo-6,7-dihydro-1H-pyrazolo[3,4-b]pyridin-5-yl)-4-methylphenyl)cyclopropanecarboxamide]
		≥ 6.76	7.68	Cn1c(=O)c(-c2cc(C(=O)NC3CC3)ccc2CO)cc2cnn(-c3c(F)cccc3F)c21 [Example 32, N-cyclopropyl-3-(1-(2,6-difluorophenyl)-7-methyl-6-oxo-6,7-dihydro-1H-pyrazolo[3,4-b]pyridin-5-yl)-4-(hydroxymethyl)benzamide]
≤ 5.60				Cn1c(=O)c(-c2cc(C#N)ccc2Cl)cc2cnn(-c3c(F)cccc3F)c21 [Example 33, 4-chloro-3-(1-(2,6-difluorophenyl)-7-methyl-6-oxo-6,7-dihydro-1H-pyrazolo[3,4-b]pyridin-5-yl)benzonitrile]
		≥ 6.76	8.59	Cc1ccc(C(=O)NC2CC2)cc1-c1cc2cnn(-c3c(F)cccc3F)c2n(C)c1=S [Example 34, N-cyclopropyl-3-(1-(2,6-difluorophenyl)-7-methyl-6-thioxo-6,7-dihydro-1H-pyrazolo[3,4-b]pyridin-5-yl)-4-methylbenzamide]
		≥ 6.76	7.47	Cc1ccc(C(=O)NC2CC2)cc1-c1cc2cnn(-c3ccc(F)cc3F)c2n(CC(O)CO)c1=O (stereo not shown) [Example 35, N-cyclopropyl-3-(1-(2,4-difluorophenyl)-7-(2,3-dihydroxypropyl)-6-oxo-6,7-dihydro-1H-pyrazolo[3,4-b]pyridin-5-yl)-4-methylbenzamide]
6.58		≥ 6.76		Cc1ccc(NC(=O)NC2CC2)cc1-c1cc2cnn(-c3c(F)cccc3F)c2n(C)c1=O [Example 36, 1-cyclopropyl-3-(3-(1-(2,6-difluorophenyl)-7-methyl-6-oxo-6,7-dihydro-1H-pyrazolo[3,4-b]pyridin-5-yl)-4-methylphenyl)urea]
6.49		≥ 6.76		Cc1ccc(N)cc1-c1cc2cnn(-c3ccc(F)cc3F)c2n(C)c1=O [Example 37, 5-(5-amino-2-methylphenyl)-1-(2,4-difluorophenyl)-7-methyl-1,7-dihydro-6H-pyrazolo[3,4-b]pyridin-6-one]
≥ 7.00	7.22	≥ 6.76		Cc1ccc(N)cc1-c1cc2cnn(-c3c(F)cccc3F)c2n(C)c1=O [Example 39, 5-(5-amino-2-methylphenyl)-1-(2,6-difluorophenyl)-7-methyl-1,7-dihydro-6H-pyrazolo[3,4-b]pyridin-6-one]
≤ 5.60				Cc1ccc(I)cc1-c1cc2cnn(-c3c(F)cccc3F)c2n(C)c1=O [Example 40, 1-(2,6-difluorophenyl)-5-(5-iodo-2-methylphenyl)-7-methyl-1,7-dihydro-6H-pyrazolo[3,4-b]pyridin-6-one]
≤ 5.60		≥ 6.76		Cn1c(=O)c(-c2cc(C(=O)O)ccc2Cl)cc2cnn(-c3c(F)cccc3F)c21 [Example 42, 4-chloro-3-(1-(2,6-difluorophenyl)-7-methyl-6-oxo-6,7-dihydro-1H-pyrazolo[3,4-b]pyridin-5-yl)benzoic acid]
≤ 5.60				Cc1ccc(I)cc1-c1cc2cnn(-c3ccc(F)cc3F)c2n(C)c1=O [Example 43, 1-(2,4-difluorophenyl)-5-(5-iodo-2-methylphenyl)-7-methyl-1,7-dihydro-6H-pyrazolo[3,4-b]pyridin-6-one]
		≥ 6.76	8.31	CCn1c(=O)c(-c2cc(C(=O)NC3CC3)ccc2C)cc2cnn(-c3ccc(F)cc3F)c21 [Example 46, N-cyclopropyl-3-(1-(2,4-difluorophenyl)-7-ethyl-6-oxo-6,7-dihydro-1H-pyrazolo[3,4-b]pyridin-5-yl)-4-methylbenzamide]
6.18				Cc1ccc(C(=O)NC2CC2)cc1-c1cc2cnn(S(=O)(=O)C3CC3)c2n(C)c1=O [Example 47, N-cyclopropyl-3-(1-(cyclopropylsulfonyl)-7-methyl-6-oxo-6,7-dihydro-1H-pyrazolo[3,4-b]pyridin-5-yl)-4-methylbenzamide]
6.49		≥ 6.76		Cn1c(=O)c(-c2cc(N)ccc2Cl)cc2cnn(-c3c(F)cccc3F)c21 [Example 48, 5-(5-amino-2-chlorophenyl)-1-(2,6-difluorophenyl)-7-methyl-1,7-dihydro-6H-pyrazolo[3,4-b]pyridin-6-one]
		≥ 6.76	8.21	Cc1ccc(C(=O)NC2CC2)cc1-c1cc2cnn(-c3ccc(F)cc3)c2n(C)c1=O [Example 52, N-cyclopropyl-3-(1-(4-fluorophenyl)-7-methyl-6-oxo-6,7-dihydro-1H-pyrazolo[3,4-b]pyridin-5-yl)-4-methylbenzamide]
		≥ 6.76	8.22	Cn1c(=O)c(-c2cc(C(=O)NC3CC3)ccc2Cl)cc2cnn(-c3ccc(F)cc3)c21 [Example 53, 4-chloro-N-cyclopropyl-3-(1-(4-fluorophenyl)-7-methyl-6-oxo-6,7-dihydro-1H-pyrazolo[3,4-b]pyridin-5-yl)benzamide]

Compound	pIC50 ([1]; Homo sapiens)	pIC50 [1]	pIC50 [2]	pIC50 (recombinant human p38α)
N-cyclopropyl-3-(1-(2,4-difluorophenyl)-7-methyl-6-thioxo-6,7-dihydro-1H-pyrazolo[3,4-b]pyridin-5-yl)-4-methylbenzenecarbothioamide [Example 51]		6.65		
